# Results: patent publication US20240058283A1, “THE MODE OF ACTION OF N-MeDCPA ON TRPC CHANNELS” (West Virginia University Board of Governors on Behalf of …, priority 2022, published 2024)
# Read-outs that look alike come from different tables or passages of the source.
# Tests used:
# [1] = target: T1, TRPC7 (Homo sapiens, UniProt Q9HCX4); assay: Carbachol (Cch)-induced Sr2+ entry in Fura2-loaded HEK293 cells overexpressing TRPC7; type: cell-based; details: versus DAG-mediated activation, FIG. 2D, E
# T1 construct: expressed in transfected cells; host or cells: HEK293 (transient transfection)
# T1 sequence (Q9HCX4 1-862): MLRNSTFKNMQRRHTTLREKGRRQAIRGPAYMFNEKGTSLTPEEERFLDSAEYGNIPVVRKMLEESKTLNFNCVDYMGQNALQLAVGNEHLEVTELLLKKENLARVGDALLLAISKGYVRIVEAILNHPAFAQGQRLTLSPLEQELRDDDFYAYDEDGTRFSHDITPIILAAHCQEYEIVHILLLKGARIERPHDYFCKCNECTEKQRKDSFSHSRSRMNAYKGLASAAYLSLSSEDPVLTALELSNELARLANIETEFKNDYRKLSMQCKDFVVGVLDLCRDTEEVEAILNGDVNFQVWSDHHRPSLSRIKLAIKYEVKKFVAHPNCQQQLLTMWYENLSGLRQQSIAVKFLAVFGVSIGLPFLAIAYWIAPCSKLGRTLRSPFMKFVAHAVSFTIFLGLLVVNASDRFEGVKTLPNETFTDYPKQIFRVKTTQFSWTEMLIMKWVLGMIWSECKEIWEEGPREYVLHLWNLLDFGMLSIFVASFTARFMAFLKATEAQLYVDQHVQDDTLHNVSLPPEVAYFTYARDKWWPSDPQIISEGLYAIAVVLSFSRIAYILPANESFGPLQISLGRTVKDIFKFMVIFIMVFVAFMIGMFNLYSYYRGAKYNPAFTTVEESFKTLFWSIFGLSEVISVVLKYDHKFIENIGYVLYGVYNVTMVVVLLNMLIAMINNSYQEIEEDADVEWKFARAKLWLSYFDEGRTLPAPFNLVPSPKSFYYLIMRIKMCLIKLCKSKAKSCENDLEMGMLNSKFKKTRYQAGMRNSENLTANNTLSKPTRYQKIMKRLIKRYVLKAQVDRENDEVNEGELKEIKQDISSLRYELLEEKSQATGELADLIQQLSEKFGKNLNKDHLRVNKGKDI
# Excerpt: Inhibition of GPCR-mediated TRPC activation. Since TRPC4 and TRPC5 are not activated by DAG, we utilized carbachol (Cch)-induced Sr^2+ entry to determine their sensitivity to ELP-004. Since Cch drives ER Ca^2+ release, Cch-induced Ca^2+ entry includes both store-operated and TRPC-mediated components. To specifically measure ion entry through TRPC channels, we took advantage of the lack of ion selectivity of TRPC channel and substituted Sr^2+ for Ca^2+ as previously described^7. As expected, Cch stimulated rapid ER Ca^2+ release immediately upon addition in both TRPC4- and TRPC5-expressing cells (FIG. 2A,B). The subsequent addition of Sr^2+ (3 mM) lead to a significant increase in Fura ratio with a substantially larger response in TRPC5-expressing than TRPC4-expressing cells. […] Therefore, we assessed inhibition of TRPC7 by ELP-004 using the Cch Sr^2+ assay (FIG. 2D, E). […]
# TRPC activity assay—Cells grown on glass coverslips were incubated in a cation-safe buffer (107 mM NaCl, 7.2 mM KCl, 1.2 mM MgCl2, 11.5 mM Glucose, 20 mM HEPES-NaOH, 1 mM CaCl2), pH 7.2) and loaded with Fura2-acetoxymethylester (Fura2-AM; 2 μM) for 30 min at 24° C. as previously described^10,11. […] Ca^2+/Sr^2+ measurements were taken using a Leica DMI 6000B fluorescence microscope controlled by Slidebook software (Intelligent Imaging Innovations, Denver, CO). […]
# [2] = system: Jurkat cells; type: cell-based; design: dose or concentration left out as unconfirmed; details: human
# Method: ELP-004 (N-MeDCPA) was specifically developed to preclude metabolizing to two toxic metabolites, N—OH-dichloroaniline and 6-OH-dichloroaniline. In vitro assays for toxicity caused by ELP-004 using Jurkat cells show 50% toxicity at […] and <2% toxicity at […]. […] Thus, ELP-004 has high potential for use as a drug to prevent or reduce bone erosion.
# [3] = system: Mouse splenic monocytes; assay: Osteoclast resorption (pit formation) on Corning osteo-assay surface plates; type: cell-based; details: 1 ng/ml RANKL, 2 ng/ml TNFα, 50 ng/ml m-CSF; 7, 14 or 21 days; 100 nM ELP-004
# Method: Mouse splenic monocytes were induced to differentiate by the addition of 1 ng/ml RANKL, 2 ng/ml TNFα and 50 ng/ml m-CSF. The panels of FIG. 6 show a representative photomicrograph of cells after 7, 14, or 21 days of culture on Corning osteo-assay surface plates with RANKL+mCSF+TNFα or with the addition of 100 nM ELP-004.
# [4] = Metabolite formation in human liver S9; type: in vitro ADME; details: cofactors-fortified human liver S9, 37 degrees centigrade, 1 hour; LC-MS/MS
# Method: Drug Synthesis—ELP-004 (N-MeDCPA) was synthesized as described in U.S. patent Ser. No. 10/682,320. […] Metabolites formed after incubations using either cofactors-fortified mouse or human liver S9 (mouse liver S9; human liver S9) at 37 degrees centigrade for 1 hour. The reaction was quenched by ultracentrifugation. The supernatant was analyzed using LC-MS/MS analysis using Accela LC (Thermo Scientific, Inc., San Jose, CA) coupled to an LTQ LX or to LTQ Orbitrap XL.
# ELP-004 is N-(3,4-dichlorophenyl)-N-methylpropanamide. The core structure of ELP-004 is an aniline compound. Aniline compounds, generally, have a high risk of forming reactive metabolites. ELP-004 was specifically designed to preclude formation of reactive metabolites. Methylation of the amide nitrogen improves metabolic stability.
# [5] = Elimination after administration per os; type: in vivo; details: administered per os
smiles,measurement,setting,value
"CCC(=O)N(C)c1ccc(Cl)c(Cl)c1 [ELP-004, N-(3,4-dichlorophenyl)-N-methylpropanamide]",increase in sensitivity to ELP-004 in the Cch Sr2+ assay,[1],3 order of magnitude
same,toxicity,[2]; 200,< 2%
same,toxicity,[2]; 800,50%
same,pit formation (osteoclast resorption),[3],inhibited pit formation
same,formation of reactive or toxic metabolites,[4],No reactive or toxic compounds were formed
same,time until essentially eliminated,[5],≤ 4 h
